In US9675596B2, “1,2,4-thiazolidin-3-one derivatives and their use in the treatment of cancer” (Baltic Bio AB, priority 2009, dated 2017):

What was measured:
[1] = tested on: PC-3 cells; test: Cell proliferation assay (BrdU incorporation); format: cell-based; conditions: Homo sapiens, serum-free, 0.6 μM, relative to vehicle control (1 unit), 18 h + 6 h BrdU, read-out: Units of BrdU incorporation
Experimental: PC-3 cancer cell lines were propagated in D-MEM (Gibco 21885) supplemented with 10% Foetal calf serum. 15000 cells per well were seeded in 96 well plates and incubated overnight. The culture media was changed to serum-free D-MEM for 24 h. The culture media was then changed to serum free D-MEM containing either 0.2% DMSO as vehicle control or 0.3, 0.6, 1.2 or 2.5 μM (or 1.25, 2.5, 5, 10 μM (as indicated in Table 1 below)) of the selected compounds of Example 1 to Example 8 in 0.2% DMSO in quadruplicate. After 18 h incubation, BrdU was added according to manufacturer's recommendations. After 6 h incubation in the presence of BrdU, the culture media was removed and BrdU incorporation was measured using “Cell Proliferation ELISA, BrdU colorimetric” Roche (11647229001) according to manufacturer's recommendations.
Proliferation rate of PC-3 cells are reduced by relevant concentrations of the test compounds as measured by BrdU incorporation.

[2] = tested on: AMPK; test: Activation of AMPK: Western blot of AMPK (Thr172) phosphorylation in PC3 cells; format: cell-based, human; conditions: PC3 cells starved 24 h serum-free; 0.3, 0.6, 1.2 and 2.5 μM for 4 h
Experimental: After starvation of PC3 cells in serum-free medium for 24 h, 0.3, 0.6, 1.2 and 2.5 μM of the compound of Example 1 or the compound of Example 2c was added and incubated for an additional 4 h. The Figure provides representative immunoblots of AMPK phosphorylation by the compound of Example 1 or the compound of Example 2c.
After starvation of PC3 cells in serum-free medium for 16 h, 1 and 5 μM of the selected compounds were added and incubated for an additional 4 h. The Figure provides representative immunoblots of the total level of AMPK (Pan-AMPK) and the level of AMPK and acetyl-CoA carboxylase phosphorylation by the selected compounds of the examples. The selected compounds of the examples stimulate AMPK phosphorylation in PC3 cells and induce the phosphorylation of acetyl-CoA carboxylase.
Selected compounds of Examples 1, 4 to 6 and 8 were prepared. A stock solution of […] was prepared by dissolving the compound in 100% DMSO.
Human PC3 cells were purchased from LGC Promochem-ATCC (ATCC catalog no CRL-1435). […]
PC3 cells were lysed in buffer (100 mM TRIS pH 6.8, 2% w/v Sodium dodecylsulfate (SDS), 10 mM NaF, 10 mM 3-glycerophosphate, 1 mM Na Vanadate). […] Protein concentrations of the lysates were measured using a BCA protein assay kit (Pierce #23225). […]

[3] = target: T1, PP2C-α1 (Homo sapiens, UniProt P35813); test: Dephosphorylation of PP2C assay (PP2C-α1 mediated dephosphorylation of AMPK trimer); format: biochemical; conditions: 2.5, 5 and 10 μM; AMPK trimer α1/β1/γ1, 20 min, 30° C.
T1 construct: purchased Abcam (PP2C-α1); Invitrogen (AMPK trimer) Ab51205; PV4672
T1 sequence (P35813 1-382): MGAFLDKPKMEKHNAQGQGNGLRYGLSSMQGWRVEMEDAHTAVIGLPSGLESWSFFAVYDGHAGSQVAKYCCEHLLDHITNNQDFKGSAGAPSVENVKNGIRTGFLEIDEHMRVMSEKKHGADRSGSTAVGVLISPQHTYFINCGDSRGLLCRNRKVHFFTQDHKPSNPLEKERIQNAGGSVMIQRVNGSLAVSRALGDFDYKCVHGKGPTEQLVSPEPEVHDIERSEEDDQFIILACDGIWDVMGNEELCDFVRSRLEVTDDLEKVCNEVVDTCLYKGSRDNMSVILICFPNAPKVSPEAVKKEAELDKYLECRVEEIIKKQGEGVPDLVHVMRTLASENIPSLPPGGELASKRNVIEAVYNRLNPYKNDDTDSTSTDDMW
Experimental: The compounds were tested in the assay at concentrations of 2.5, 5 and 10 μM (as depicted in the figure).
Hyperphosphosporylated AMPK trimer 10 (ng) (α1/β1/γ1) from Invitrogen (PV4672) was incubated in a buffer containing: 40 mM Hepes pH 7.45, 2 mM MnCl2, 0.5 mM DTT and 0.125 ng recombinant PP2C-α1 (Abcam Ab51205) in the presence or absence of potential inhibitors of the interaction/enzymatic reaction in at total volume of 10 μL for 20 minutes in 30° C. The reaction was terminated by addition of 40 μL stop solution containing 1% Bovine Serum Albumin (BSA), 10 mM EDTA and anti Phospho-AMPKα (Thr172) Antibody (cell signaling #2531) at a dilution of 1/1000. The samples were transferred to glutathione coated 96 well plated (Pierce #15140) and incubated O/N at +4° C. The plate was washed 3×200 μL in PBS/0.05% Triton X-100. The plate was incubated with PBS/1% BSA and horse radish peroxidase conjugated goat-anti rabbit antibody (Jackson immunoresearch Laboratories Inc. #111-035-003) at a dilution of 1/10 000 for 2 h in room temperature. The plate was washed 3×200 μL in PBS/0.05% Triton X-100. The assay was developed by addition of 100 μL Liquid Substrate System for ELISA (Sigma, T0440) for 5-30 min. The developing reaction was terminated by addition of 25 μL […]. Absorbance was measured at 450 nm, where absorbance correlates to amount p-T172 AMPK.

Row | SMILES | activity at 0.6 µM [1] [%] | AMPK phosphorylation (immunoblot, FIG. 1) [2] | PP2C-α1 mediated dephosphorylation of AMPK (FIG. 3) [3]
1 | O=c1[nH]s/c(=N\c2ccc(Cl)c(Cl)c2)n1Cc1cccc(C(F)(F)F)c1 [Example 1, 5-(3,4-dichlorophenyl)imino-4-[[3-(trifluoromethyl)phenyl]methyl]-1,2,4-thiadiazolidin-3-one] | 39 | stimulates AMPK phosphorylation | reduce PP2C-α1 mediated dephosphorylation of AMPK
2 | O=c1[nH]s/c(=N\c2ccc(Cl)c(Cl)c2)n1Cc1ccc(F)c(F)c1 [Example 2c, 5-(3,4-dichlorophenyl)imino-4-[(3,4-difluorophenyl)methyl]-1,2,4-thiadiazolidin-3-one] | 34 | stimulates AMPK phosphorylation | reduce PP2C-α1 mediated dephosphorylation of AMPK
